# According to patent US5498632A, “Esters of acyl carnitines with long-chain aliphatic alcohols and pharmaceutical compositions containing same having antibacterial activity” (Sigma-Tau Industrie Farmaceutiche Riunite S.p.A., priority 1992, dated 1996):
# Like-named read-outs stand apart in the source and are kept apart here.
# How the values were obtained:
# Format in all cases: cell-based
# Gram- bacterial strains = experiment: Mean MIC in broth and resistant strain number, Gram- strains; settings: 18 h, read-out: Mean MIC values
# Experimental: (§1) MICs were determined by a standard microdilution test, using serial two-fold dilutions of the substances in Mueller-Hinton broth.
# (§2) The inoculum was prepared from an overnight culture in Mueller-Hinton broth matching the 0.5 Mc Farland (turbidity) standard (BRAY W. E., Clinical Laboratory Methods, 5th Ed. C. V. MOSBY, St. Louis, Mo. 1957), and was adjusted to a final concentration of 5.0×10^4 colony-forming units/ml.
# (§3) Equal volumes (0.1 ml) of both bacterial suspensions and substance solutions were distributed in microtiter plates (Falcon, 96 wells, round bottom), and then placed in a humidified incubator (37° C.) for 18 hours.
# (§4) Evaluation of the Minimal Inhibitory Concentration (MIC) in broth of 16 new substances for Gram- bacterial strains.
# (§5) The following strains were used: Enterobacter (1), Escherichia (3), Klebsiella (3), Proteus (3); Pseudomonas (2); Salmonella (2), Serratia (1).
# [1] = system: Staphylococcus aureus (LC1); experiment: MIC in broth, Gram+ strains; settings: S. aureus (LC1), Mueller-Hinton broth, 37° C., 18 hours, read-out: Minimal Inhibitory Concentration (MIC)
# Experimental: (§6) Evaluation of the Minimal Inhibitory Concentration (MIC) in broth of 15 new substances for Gram+ bacterial strains.
# (§7) The following strains were used: Staphylococcus aureus (4); Streptococcus faecalis (8); Bacillus pumilus (1); Bacillus subtilis (1).
# as §1, §2, §3
# (§8) The results, in terms of MIC values, resistant strain number and mean MIC values versus susceptible strains, are illustrated in Tables 1-6.
# [2] = system: Streptococcus faecalis (519); experiment: MIC in broth, Gram+ strains; settings: Enterococcus faecalis; S. faecalis (519), Mueller-Hinton broth, 37° C., 18 hours; read-out: Minimal Inhibitory Concentration (MIC)
# Experimental: as §6, §7, §1, §2, §3, §8
# [3] = system: Staphylococcus aureus (303); experiment: MIC in broth, Gram+ strains; settings: S. aureus (303), Mueller-Hinton broth, 37° C., 18 hours, read-out: Minimal Inhibitory Concentration (MIC)
# Experimental: as §6, §7, §1, §2, §3, §8
# [4] = system: Streptococcus faecalis (518); experiment: MIC in broth, Gram+ strains; settings: Enterococcus faecalis; S. faecalis (518), Mueller-Hinton broth, 37° C., 18 hours; read-out: Minimal Inhibitory Concentration (MIC)
# Experimental: as §6, §7, §1, §2, §3, §8
# Gram+ bacterial strains = experiment: Mean MIC in broth and resistant strain number, Gram+ strains; settings: 18 h, versus susceptible strains
# Experimental: as §6, §7, §1, §2, §3, §8
# [5] = system: Pseudomonas aeruginosa (3 E); experiment: MIC in broth, Gram- strains; settings: 18 h, read-out: Minimal Inhibitory Concentration (MIC)
# Experimental: as §1, §2, §3, §4, §5
# [6] = system: Salmonella typhimurium (D.S.); experiment: MIC in broth, Gram- strains; settings: Salmonella enterica, 18 h, read-out: Minimal Inhibitory Concentration (MIC)
# Experimental: as §1, §2, §3, §4, §5
# Klebsiella oxytoca (552) = experiment: MIC in broth, Gram- strains; settings: 18 h, read-out: Minimal Inhibitory Concentration (MIC)
# Experimental: as §1, §2, §3, §4, §5
# Escherichia coli (76 F) = experiment: MIC in broth, Gram- strains; settings: 18 h, E. coli (76 F), read-out: Minimal Inhibitory Concentration (MIC)
# Experimental: as §1, §2, §3, §4, §5
# [7] = system: Staphylococcus aureus (ATCC 14154); experiment: MIC in broth, Gram+ strains; settings: ATCC14154, S. aureus (ATCC 14154), Mueller-Hinton broth, 37° C., 18 hours, read-out: Minimal Inhibitory Concentration (MIC)
# Experimental: as §6, §7, §1, §2, §3, §8
# [8] = system: Staphylococcus aureus (306 MR); experiment: MIC in broth, Gram+ strains; settings: S. aureus (306 MR), Mueller-Hinton broth, 37° C., 18 hours, read-out: Minimal Inhibitory Concentration (MIC)
# Experimental: as §6, §7, §1, §2, §3, §8
# [9] = system: Bacillus pumilus (CN 607); experiment: MIC in broth, Gram+ strains; settings: B. pumilus (CN 607), Mueller-Hinton broth, 37° C., 18 hours, read-out: Minimal Inhibitory Concentration (MIC)
# Experimental: as §6, §7, §1, §2, §3, §8
# [10] = system: Streptococcus faecalis (505); experiment: MIC in broth, Gram+ strains; settings: Enterococcus faecalis; S. faecalis (505), Mueller-Hinton broth, 37° C., 18 hours; read-out: Minimal Inhibitory Concentration (MIC)
# Experimental: as §6, §7, §1, §2, §3, §8
# [11] = system: Streptococcus faecalis (R 2); experiment: MIC in broth, Gram+ strains; settings: Enterococcus faecalis; S. faecalis (R 2), Mueller-Hinton broth, 37° C., 18 hours; read-out: Minimal Inhibitory Concentration (MIC)
# Experimental: as §6, §7, §1, §2, §3, §8
# [12] = system: Streptococcus faecalis (501); experiment: MIC in broth, Gram+ strains; settings: Enterococcus faecalis; S. faecalis (501), Mueller-Hinton broth, 37° C., 18 hours; read-out: Minimal Inhibitory Concentration (MIC)
# Experimental: as §6, §7, §1, §2, §3, §8
# [13] = system: Streptococcus faecalis (509); experiment: MIC in broth, Gram+ strains; settings: Enterococcus faecalis; S. faecalis (509), Mueller-Hinton broth, 37° C., 18 hours; read-out: Minimal Inhibitory Concentration (MIC)
# Experimental: as §6, §7, §1, §2, §3, §8
# [14] = system: Streptococcus faecalis (516); experiment: MIC in broth, Gram+ strains; settings: Enterococcus faecalis; S. faecalis (516), Mueller-Hinton broth, 37° C., 18 hours; read-out: Minimal Inhibitory Concentration (MIC)
# Experimental: as §6, §7, §1, §2, §3, §8
# [15] = system: Streptococcus faecalis (UM); experiment: MIC in broth, Gram+ strains; settings: Enterococcus faecalis; S. faecalis (UM), Mueller-Hinton broth, 37° C., 18 hours; read-out: Minimal Inhibitory Concentration (MIC)
# Experimental: as §6, §7, §1, §2, §3, §8
# [16] = system: Bacillus subtilis (ATCC 6051); experiment: MIC in broth, Gram+ strains; settings: ATCC6051, B. subtilis (ATCC 6051), Mueller-Hinton broth, 37° C., 18 hours, read-out: Minimal Inhibitory Concentration (MIC)
# Experimental: as §6, §7, §1, §2, §3, §8
# [17] = system: Enterobacter aerogenes (UM); experiment: MIC in broth, Gram- strains; settings: Klebsiella aerogenes, 18 h, read-out: Minimal Inhibitory Concentration (MIC)
# Experimental: as §1, §2, §3, §4, §5
# Escherichia coli (92 F) = experiment: MIC in broth, Gram- strains; settings: 18 h, E. coli (92 F), read-out: Minimal Inhibitory Concentration (MIC)
# Experimental: as §1, §2, §3, §4, §5
# Proteus vulgaris (UM) = experiment: MIC in broth, Gram- strains; settings: 18 h, read-out: Minimal Inhibitory Concentration (MIC)
# Experimental: as §1, §2, §3, §4, §5
# [18] = Gram- strains, versus susceptible strains
SMILES,MIC (Gram- bacterial strains; [18]) [µg/mL],MIC [1] [µg/mL],MIC [2] [µg/mL],MIC [3] [µg/mL],MIC [4] [µg/mL],MIC (Gram+ bacterial strains) [µg/mL],MIC [5] [µg/mL],MIC [6] [µg/mL],MIC (Klebsiella oxytoca (552)) [µg/mL],MIC (Escherichia coli (76 F)) [µg/mL],MIC (Gram- bacterial strains) [µg/mL],MIC [7] [µg/mL],MIC [8] [µg/mL],MIC [9] [µg/mL],MIC [10] [µg/mL],MIC [11] [µg/mL],MIC [12] [µg/mL],MIC [13] [µg/mL],MIC [14] [µg/mL],MIC [15] [µg/mL],further results
CCCCCCCCCCCOC(=O)CC(C[N+](C)(C)C)OC(=O)CCCCCCCCCC (stereo not shown) [ST 982],> 100,3.12,3.12,> 100,1.56,2.6,> 100,> 100,> 100,> 100,–,–,–,–,–,–,–,–,–,–,–
CCCCCCCCCCCCCCCC(=O)OC(CC(=O)OCCCCCCCCCCC)C[N+](C)(C)C (stereo not shown) [ST 983],> 100,> 100,> 100,> 100,> 100,> 100,> 100,> 100,> 100,> 100,–,–,–,–,–,–,–,–,–,–,–
CCCCCCCCCCCOC(=O)CC(C[N+](C)(C)C)OC(=O)CCCCCCC (stereo not shown) [ST 1000],–,1.56,3.12,–,3.12,2.49,> 100,> 100,> 100,> 100,> 100,1.56,3.12,–,–,–,–,–,–,–,–
CCCCCCCCCCCCCCCCOC(=O)CC(C[N+](C)(C)C)OC(=O)CC(C)C (stereo not shown) [ST 1001],–,12.5,3.12,6.25,3.12,5.35,> 100,> 100,–,–,> 100,6.25,6.25,6.25,3.12,3.12,3.12,3.12,3.12,3.12,MIC [16]: 12.5 µg/mL; MIC [17]: > 100 µg/mL; MIC (Escherichia coli (92 F)): > 100 µg/mL; MIC (Proteus vulgaris (UM)): > 100 µg/mL
CCCCCCCCCCCCCOC(=O)CC(C[N+](C)(C)C)OC(=O)CC(C)C (stereo not shown) [ST 1033],100,1.56,1.56,3.12,1.56,2.11,> 100,> 100,–,–,–,3.12,3.12,1.56,1.56,1.56,3.12,1.56,1.56,1.56,MIC [16]: 3.12 µg/mL; MIC [17]: 100 µg/mL; MIC (Escherichia coli (92 F)): > 100 µg/mL; MIC (Proteus vulgaris (UM)): > 100 µg/mL
